Measurements: PubChem BioAssay AID248 (DTP/NCI, 2004)
Where “and” joins values, the source holds several entries; their conditions need not be identical. Identical values can stand only once. Toxic doses and inconclusive results are not listed. Rule as the data show it: active = T/C of 150% or more; inactive = T/C below 125%. Peptide text beside a SMILES is read from it. * marks the point of attachment. Bz = O=C(c1ccccc1)*

Test system: L1210 leukemia ip in BDF1 mice, survival T/C
Assay: NCI In Vivo Anticancer Drug Screen. Data for tumor model L1210 Leukemia (intraperitoneal) in B6D2F1 (BDF1) mice
Details: endpoint: mean survival time, higher = longer survival
How it was run: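 Tumor was transplanted into mice, which were then dosed with test compound or vehicle alone. Survival was recorded for each group, and the treated figure was expressed relative to the control figure.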

[1] = dose: 50.0 mg/kg/injection, schedule: Q01DX001 (ip), vehicle: carboxymethylcellulose (CMC)
[2] = dose: 100.0 mg/kg/injection, schedule: Q01DX001 (ip), vehicle: carboxymethylcellulose (CMC)
[3] = dose: 200.0 mg/kg/injection, schedule: Q01DX001 (ip), vehicle: carboxymethylcellulose (CMC)
[4] = dose: 400.0 mg/kg/injection, schedule: Q01DX001 (ip), vehicle: carboxymethylcellulose (CMC)
[5] = dose: 50.0 mg/kg/injection, schedule: Q01DX009 (ip), vehicle: saline
[6] = dose: 100.0 mg/kg/injection, schedule: Q01DX009 (ip), vehicle: saline
[7] = dose: 100.0 mg/kg/injection, schedule: Q04DX003 (ip), vehicle: saline
[8] = dose: 200.0 mg/kg/injection, schedule: Q01DX009 (ip), vehicle: saline
[9] = dose: 100.0 mg/kg/injection, schedule: Q04DX002 (ip), vehicle: saline
[10] = dose: 200.0 mg/kg/injection, schedule: Q04DX002 (ip), vehicle: saline
[11] = dose: 75.0 mg/kg/injection, schedule: Q01DX001 (ip), vehicle: saline
[12] = dose: 150.0 mg/kg/injection, schedule: Q01DX001 (ip), vehicle: saline
[13] = dose: 100.0 mg/kg/injection, schedule: Q04DX002 (ip), vehicle: Klucel (hydroxypropylcellulose) (HPC)
[14] = dose: 200.0 mg/kg/injection, schedule: Q04DX002 (ip), vehicle: Klucel (hydroxypropylcellulose) (HPC)
[15] = dose: 400.0 mg/kg/injection, schedule: Q04DX002 (ip), vehicle: Klucel (hydroxypropylcellulose) (HPC)
[16] = dose: 100.0 mg/kg/injection, schedule: Q01DX001 (ip), vehicle: saline
[17] = dose: 200.0 mg/kg/injection, schedule: Q01DX001 (ip), vehicle: saline
[18] = dose: 400.0 mg/kg/injection, schedule: Q01DX001 (ip), vehicle: saline
[19] = dose: 100.0 mg/kg/injection, schedule: Q01DX009 (ip), vehicle: saline with Tween-80

Measured: T/C

O=c1[nH]c(-c2ccccc2)nc2c1OCN(Cc1ccccc1)C2
inactive: [1] 98 % of control | [2] 101 % of control | [3] 98 % of control | [4] 93 % of control

CCOC(=O)/C(=C\c1ccc2c(c1)OCO2)NC(=O)c1ccccc1
inactive: [5] 102 % of control | [6] 102 % of control | [7] 98 % of control | [8] 118 % of control | dose: 200.0 mg/kg/injection, schedule: Q04DX003 (ip), vehicle: saline 92 % of control | dose: 400.0 mg/kg/injection, schedule: Q01DX009 (ip), vehicle: saline 100 % of control | dose: 400.0 mg/kg/injection, schedule: Q04DX003 (ip), vehicle: saline 92 % of control

Cn1nc(Br)c(=O)n(C(c2ccccc2)c2ccccc2)c1=O
active: dose: 200.0 mg/kg/injection, schedule: Q01DX001 (ip), vehicle: other 154 % of control | dose: 400.0 mg/kg/injection, schedule: Q01DX001 (ip), vehicle: other 154 % of control
inactive: dose: 22.0 mg/kg/injection, schedule: Q01DX015 (ip), vehicle: other 110 % of control | dose: 33.0 mg/kg/injection, schedule: Q01DX015 (ip), vehicle: other 103 % of control | dose: 44.0 mg/kg/injection, schedule: Q01DX001 (ip), vehicle: other 100 % of control | dose: 50.0 mg/kg/injection, schedule: Q01DX015 (ip), vehicle: other 103 % of control | dose: 66.0 mg/kg/injection, schedule: Q01DX001 (ip), vehicle: other 102 % of control and 108 % of control | dose: 75.0 mg/kg/injection, schedule: Q01DX015 (ip), vehicle: other 106 % of control | dose: 150.0 mg/kg/injection, schedule: Q01DX001 (ip), vehicle: other 100 % of control and 104 % of control

COc1ccccc1CN1CCCN(Cc2ccccc2OC)C1c1cc(Br)c(OC)c(OC)c1
inactive: [2] 91 % of control | [3] 91 % of control | [4] 87 % of control

COc1ccc(C)nn1
inactive: [9] 106 % of control | [10] 106 % of control | dose: 400.0 mg/kg/injection, schedule: Q04DX002 (ip), vehicle: saline 122 % of control

S=c1nc[nH]c2c1ncn2CCc1ccccc1
inactive: [1] 115 % of control | [2] 101 % of control | [3] 112 % of control | [4] 95 % of control

CCc1c(Nc2ccc(C)cc2)[nH]c(N)nc1=S
inactive: dose: 200.0 mg/kg/injection, schedule: Q01DX Z (ip), vehicle: methylcellulose (MC) 89 % of control

COC(=O)CC(O)(CC(=O)OC)C(=O)OC
inactive: dose: 100.0 mg/kg/injection, schedule: Q01DX009 (ip), vehicle: Klucel (hydroxypropylcellulose) (HPC) 93 % of control | dose: 200.0 mg/kg/injection, schedule: Q01DX009 (ip), vehicle: Klucel (hydroxypropylcellulose) (HPC) 104 % of control | dose: 400.0 mg/kg/injection, schedule: Q01DX009 (ip), vehicle: Klucel (hydroxypropylcellulose) (HPC) 93 % of control

Cc1nc(N)sc1N=Nc1ccccc1Br
inactive: [11] 103 % of control | [12] 108 % of control

CCc1nc(N)ncc1-c1ccc([N+](=O)[O-])cc1O
inactive: [13] 97 % of control | [14] 100 % of control | [15] 90 % of control

Cc1ccc(S(=O)(=O)N2/C(=C/c3ccccc3)C(=O)c3ccccc3-c3ccccc32)cc1
inactive: [16] 96 % of control | [17] 91 % of control | [18] 90 % of control

COC(=O)NC(CI)c1ccccc1 (centres undefined)
inactive: [11] 110 % of control | [12] 110 % of control | dose: 300.0 mg/kg/injection, schedule: Q01DX001 (ip), vehicle: saline 100 % of control

NC(Cc1cccnc1)C(=O)O (centres undefined)
inactive: dose: 100.0 mg/kg/injection, schedule: Q01DX001 (ip), vehicle: saline with Tween-80 109 % of control | dose: 200.0 mg/kg/injection, schedule: Q01DX001 (ip), vehicle: saline with Tween-80 103 % of control | dose: 400.0 mg/kg/injection, schedule: Q01DX001 (ip), vehicle: saline with Tween-80 98 % of control

COC(=O)CNC(=O)CNC(=O)c1ccccc1 (Bz-Gly-Gly-OMe)
inactive: [19] 89 % of control | dose: 200.0 mg/kg/injection, schedule: Q01DX009 (ip), vehicle: saline with Tween-80 87 % of control | dose: 400.0 mg/kg/injection, schedule: Q01DX009 (ip), vehicle: saline with Tween-80 87 % of control

CCN(CC)c1ccc(S(=O)(=O)NC(=O)OC)cc1
inactive: [13] 98 % of control | [14] 112 % of control | [15] 112 % of control

COc1nc2c(=O)[nH]cnc2n1C1OC(CO)C(O)C1O (centres undefined)
inactive: [16] 96 % of control | [17] 100 % of control | [18] 97 % of control

COc1ccc2c(c1)CCC1(C)C2=CC(=O)/C1=C\[O-].COc1ccc2c(c1)CCC1(C)C2=CC(=O)/C1=C\[O-].[Cu+2] (centres undefined)
inactive: dose: 25.0 mg/kg/injection, schedule: Q01DX009 (ip), vehicle: saline with Tween-80 108 % of control | dose: 50.0 mg/kg/injection, schedule: Q01DX009 (ip), vehicle: saline with Tween-80 113 % of control | [19] 97 % of control | dose: 100.0 mg/kg/injection, schedule: Q04DX003 (ip), vehicle: saline sonified 91 % of control

c1ccc(C(c2ccccc2)c2ccc3ccccc3n2)cc1
inactive: dose: 100.0 mg/kg/injection, schedule: Q04DX003 (ip), vehicle: acetone 90 % of control | dose: 200.0 mg/kg/injection, schedule: Q04DX003 (ip), vehicle: acetone 99 % of control | dose: 400.0 mg/kg/injection, schedule: Q04DX003 (ip), vehicle: acetone 94 % of control

CCN(CC)CCOc1ccc(Br)cc1
inactive: dose: 25.0 mg/kg/injection, schedule: Q04DX003 (ip), vehicle: saline 105 % of control | [5] 102 % of control | dose: 50.0 mg/kg/injection, schedule: Q04DX003 (ip), vehicle: saline 100 % of control | [6] 102 % of control | [7] 103 % of control and 111 % of control

CCC(=O)OCCOc1ccc(C(C)(C)C)cc1
inactive: dose: 50.0 mg/kg/injection, schedule: Q04DX002 (ip), vehicle: saline 98 % of control | [6] 98 % of control | [9] 94 % of control | [8] 103 % of control | [10] 91 % of control
